Experiments:
[1] = test system: bacteria; test: Antimicrobial activity, modified AATCC TM 100-2012 (general statement); type: cell-based; details: modified AATCC TM 100-2012 test
Text: (§1) Zinc oxide has been tested for antimicrobial activity in this invention according to a test that is based upon the International Standard AATCC TM 100-2012. The AATCC TM 100-2012 standard tests for microbial activity on textiles, so the test was modified for use on solid and composite materials.

[2] = Translucency of a direct filling composite resin; type: physicochemical
Text: When zinc oxide is incorporated into a chemical for use in the oral cavity, it is typically incorporated for its function as an opacifying agent and can be added to a product for this function alone. However, there is a limit to the amount that can be added. Resins are esthetic restorative materials and require high translucency to be esthetic. For this reason, the amount of zinc oxide that may be added is limited to less than 0.8 wt. fract. See Table 5 for the upper limits of zinc oxide that can be incorporated into a direct fill composite resin while maintaining high translucency.
In Table 5, as the wt. fraction of Zinc Oxide is increased, the opacity also increases to a level that is not considered suitable for use as a dental composite resin for esthetic purposes. For esthetic purposes, the dental composite resin must be sufficiently translucent to mimic the appearance of natural dentin. Beyond this level, the opacity becomes too high and the restoration appears as chalky white.

[3] = test system: strep mutans; test: Antimicrobial activity, modified AATCC TM 100-2012 for solid and composite materials; type: cell-based; details: 1.0% Wt. Fract. ZnO in a direct filling composite resin
Protocol: as §1
(§2) As discussed above, microbial activity is measured using a modified AATCC TM 100-2012 standard for use on solid and composite materials.

[4] = test system: e. coli; test: as above; type: cell-based; details: 1.0% Wt. Fract. ZnO in a direct filling composite resin
Protocol: as §1, §2

## [O]=[Zn] [Zinc Oxide, zinc oxide]
[1]
  antimicrobial activity: effective in killing bacteria
[2]; Wt. Fract. ZnO 0.8 in a direct filling composite resin
  Translucency: pass
[2]; Wt. Fract. ZnO 1.0 in a direct filling composite resin
  Translucency: fail
[3]
  % reduction of strep mutans: 100%
[4]
  % Reduction of e coli: 100%

— US20200009020A1, “Caries-Resistant Composite Resin” (Den-Mat Holdings, LLC, priority 2016, published 2020)
